Results from ChEMBL document CHEMBL5465560, “Selectivity Literature for EUbOPEN Chemogenomic Library” (2024).

Key:
[1] = target: Casein kinase I isoform delta (Homo sapiens, UniProt P48730); experiment: Selectivity interaction (KinomeScan (DiscoverX)) EUB0001049a CSNK1D; conditions: at 1 µM
[2] = target: T1, Mitogen-activated protein kinase kinase kinase kinase 3 (Homo sapiens) (UniProt Q8IVH8); experiment: Selectivity interaction (LanthaScreen Eu Kinase Binding Assay) EUB0001632a MAP4K3; conditions: at 10 µM
T1 sequence (whole entry): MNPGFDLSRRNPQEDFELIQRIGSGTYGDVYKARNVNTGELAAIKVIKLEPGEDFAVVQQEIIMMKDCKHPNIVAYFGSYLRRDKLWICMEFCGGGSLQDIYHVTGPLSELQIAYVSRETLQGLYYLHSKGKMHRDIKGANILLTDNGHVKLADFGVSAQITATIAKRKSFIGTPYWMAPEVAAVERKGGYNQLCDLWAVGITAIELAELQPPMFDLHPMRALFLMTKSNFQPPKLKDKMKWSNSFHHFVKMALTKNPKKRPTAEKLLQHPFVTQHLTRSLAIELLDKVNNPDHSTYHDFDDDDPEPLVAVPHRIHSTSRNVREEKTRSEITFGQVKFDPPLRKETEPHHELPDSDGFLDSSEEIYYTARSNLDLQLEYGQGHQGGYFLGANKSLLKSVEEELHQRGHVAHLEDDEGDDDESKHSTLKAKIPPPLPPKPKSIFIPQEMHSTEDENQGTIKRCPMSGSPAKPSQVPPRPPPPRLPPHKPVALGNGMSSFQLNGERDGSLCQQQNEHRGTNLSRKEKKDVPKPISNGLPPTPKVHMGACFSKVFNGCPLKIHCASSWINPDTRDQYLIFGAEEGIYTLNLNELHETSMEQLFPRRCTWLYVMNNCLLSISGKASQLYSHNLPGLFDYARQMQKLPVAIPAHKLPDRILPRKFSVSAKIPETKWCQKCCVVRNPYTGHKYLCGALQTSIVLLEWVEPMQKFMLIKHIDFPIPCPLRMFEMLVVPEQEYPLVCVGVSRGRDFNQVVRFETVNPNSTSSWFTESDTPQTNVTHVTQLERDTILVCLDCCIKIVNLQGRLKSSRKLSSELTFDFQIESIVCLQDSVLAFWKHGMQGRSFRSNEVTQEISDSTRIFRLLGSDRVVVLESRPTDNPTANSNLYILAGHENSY

[3] = target: T2, 5-hydroxytryptamine receptor 1A (Homo sapiens) (UniProt P08908); experiment: Selectivity interaction (GPCR panel (PDSP screen)) EUB0001079a HTR1A; conditions: at 10 µM
T2 sequence (whole entry): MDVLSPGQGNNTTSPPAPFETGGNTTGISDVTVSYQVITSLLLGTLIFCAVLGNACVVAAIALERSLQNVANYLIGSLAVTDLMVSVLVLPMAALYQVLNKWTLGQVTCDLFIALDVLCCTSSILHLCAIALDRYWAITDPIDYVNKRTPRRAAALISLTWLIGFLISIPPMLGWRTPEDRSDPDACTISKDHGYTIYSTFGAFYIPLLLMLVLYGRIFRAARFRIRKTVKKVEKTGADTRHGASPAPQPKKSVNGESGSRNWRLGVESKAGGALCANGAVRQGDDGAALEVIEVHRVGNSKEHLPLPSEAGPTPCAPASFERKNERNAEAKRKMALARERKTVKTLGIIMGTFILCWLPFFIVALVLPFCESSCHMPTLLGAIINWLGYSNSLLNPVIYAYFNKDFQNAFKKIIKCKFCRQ

[4] = target: Mitogen-activated protein kinase kinase kinase 11 (Homo sapiens) (UniProt Q16584); experiment: Selectivity interaction (KinomeScan (DiscoverX)) EUB0000092b MAP3K11; conditions: at 10 µM
[5] = target: T3, Ephrin type-B receptor 3 (Homo sapiens) (UniProt P54753); experiment: Selectivity interaction (KinomeScan (DiscoverX)) EUB0000655a EPHB3; conditions: at 10 µM
T3 sequence (whole entry): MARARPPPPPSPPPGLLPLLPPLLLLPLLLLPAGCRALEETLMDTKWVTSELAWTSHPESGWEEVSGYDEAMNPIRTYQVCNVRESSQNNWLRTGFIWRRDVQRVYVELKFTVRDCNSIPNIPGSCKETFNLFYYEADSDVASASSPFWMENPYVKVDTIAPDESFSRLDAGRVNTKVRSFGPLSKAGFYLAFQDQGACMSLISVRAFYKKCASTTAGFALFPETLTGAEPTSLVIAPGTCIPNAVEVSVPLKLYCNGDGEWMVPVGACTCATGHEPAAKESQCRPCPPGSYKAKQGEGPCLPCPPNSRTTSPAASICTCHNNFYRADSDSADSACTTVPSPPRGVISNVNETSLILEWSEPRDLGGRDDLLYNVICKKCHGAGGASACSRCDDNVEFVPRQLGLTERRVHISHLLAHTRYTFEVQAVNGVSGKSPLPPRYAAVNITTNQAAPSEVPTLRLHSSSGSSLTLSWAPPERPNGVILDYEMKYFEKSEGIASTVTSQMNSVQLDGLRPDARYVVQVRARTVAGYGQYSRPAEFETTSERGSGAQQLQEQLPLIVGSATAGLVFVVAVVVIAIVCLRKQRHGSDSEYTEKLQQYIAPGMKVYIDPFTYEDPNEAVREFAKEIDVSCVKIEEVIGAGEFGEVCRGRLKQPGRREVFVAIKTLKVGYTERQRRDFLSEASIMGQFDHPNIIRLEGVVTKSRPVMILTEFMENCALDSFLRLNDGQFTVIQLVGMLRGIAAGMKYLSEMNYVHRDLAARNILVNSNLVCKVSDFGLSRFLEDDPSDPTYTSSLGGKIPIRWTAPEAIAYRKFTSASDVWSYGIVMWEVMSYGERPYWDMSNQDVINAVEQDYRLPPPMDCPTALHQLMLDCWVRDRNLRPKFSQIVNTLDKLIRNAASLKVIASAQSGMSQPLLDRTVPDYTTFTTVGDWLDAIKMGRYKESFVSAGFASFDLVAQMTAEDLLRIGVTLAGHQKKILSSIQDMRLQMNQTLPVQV

[6] = target: Serine/threonine-protein kinase PAK 3 (Homo sapiens) (UniProt O75914); experiment: Selectivity interaction (KinomeScan (DiscoverX)) EUB0001619a PAK3; conditions: at 1 µM
[7] = target: T4, Serine/threonine-protein kinase 17B (Homo sapiens) (UniProt O94768); experiment: Selectivity interaction (KinomeScan (DiscoverX)) EUB0000618a STK17B; conditions: at 10 µM
T4 sequence (whole entry): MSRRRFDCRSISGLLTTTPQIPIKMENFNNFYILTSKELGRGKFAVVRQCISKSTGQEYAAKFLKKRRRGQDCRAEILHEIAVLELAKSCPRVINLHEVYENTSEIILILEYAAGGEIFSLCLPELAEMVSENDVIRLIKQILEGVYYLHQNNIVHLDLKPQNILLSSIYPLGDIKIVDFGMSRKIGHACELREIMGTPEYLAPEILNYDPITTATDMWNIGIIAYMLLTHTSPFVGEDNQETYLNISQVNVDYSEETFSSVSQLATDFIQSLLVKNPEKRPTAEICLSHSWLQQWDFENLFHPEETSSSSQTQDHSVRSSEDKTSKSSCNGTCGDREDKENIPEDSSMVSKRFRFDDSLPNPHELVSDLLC

Casein kinase I isoform delta, sequence (P48730 whole entry, looked up, canonical isoform): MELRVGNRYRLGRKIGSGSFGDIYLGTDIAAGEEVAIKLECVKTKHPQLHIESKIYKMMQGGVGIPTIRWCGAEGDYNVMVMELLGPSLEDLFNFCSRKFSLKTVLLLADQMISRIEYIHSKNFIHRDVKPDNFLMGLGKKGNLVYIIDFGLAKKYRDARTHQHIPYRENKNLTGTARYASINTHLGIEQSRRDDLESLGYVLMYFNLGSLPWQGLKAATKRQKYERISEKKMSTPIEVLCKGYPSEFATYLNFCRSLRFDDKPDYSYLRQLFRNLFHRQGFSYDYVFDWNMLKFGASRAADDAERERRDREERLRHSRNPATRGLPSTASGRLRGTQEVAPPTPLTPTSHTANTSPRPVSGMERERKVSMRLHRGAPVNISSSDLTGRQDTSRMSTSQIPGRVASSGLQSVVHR
Mitogen-activated protein kinase kinase kinase 11 (Homo sapiens), sequence (Q16584 whole entry, looked up): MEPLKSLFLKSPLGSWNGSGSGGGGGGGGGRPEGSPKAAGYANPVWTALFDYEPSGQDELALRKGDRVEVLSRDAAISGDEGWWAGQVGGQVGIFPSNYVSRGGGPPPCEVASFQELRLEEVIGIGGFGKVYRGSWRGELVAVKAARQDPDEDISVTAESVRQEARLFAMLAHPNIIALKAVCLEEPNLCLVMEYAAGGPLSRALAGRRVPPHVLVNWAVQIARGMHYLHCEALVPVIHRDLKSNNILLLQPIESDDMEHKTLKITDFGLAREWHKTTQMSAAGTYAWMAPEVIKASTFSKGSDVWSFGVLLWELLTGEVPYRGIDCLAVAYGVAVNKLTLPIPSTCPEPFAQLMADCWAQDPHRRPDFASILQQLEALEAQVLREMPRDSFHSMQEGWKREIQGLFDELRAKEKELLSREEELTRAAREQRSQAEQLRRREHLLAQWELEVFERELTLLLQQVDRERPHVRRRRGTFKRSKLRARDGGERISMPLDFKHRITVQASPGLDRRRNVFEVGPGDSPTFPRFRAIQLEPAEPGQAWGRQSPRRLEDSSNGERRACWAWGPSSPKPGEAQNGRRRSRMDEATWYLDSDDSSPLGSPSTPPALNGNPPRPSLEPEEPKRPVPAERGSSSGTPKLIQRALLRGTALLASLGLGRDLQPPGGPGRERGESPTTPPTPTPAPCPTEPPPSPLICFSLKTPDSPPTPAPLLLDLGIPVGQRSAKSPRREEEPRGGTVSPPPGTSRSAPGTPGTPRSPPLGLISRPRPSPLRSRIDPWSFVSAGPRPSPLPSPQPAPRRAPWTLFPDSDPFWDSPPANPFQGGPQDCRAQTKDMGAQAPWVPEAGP
Serine/threonine-protein kinase PAK 3 (Homo sapiens), sequence (O75914 whole entry, looked up): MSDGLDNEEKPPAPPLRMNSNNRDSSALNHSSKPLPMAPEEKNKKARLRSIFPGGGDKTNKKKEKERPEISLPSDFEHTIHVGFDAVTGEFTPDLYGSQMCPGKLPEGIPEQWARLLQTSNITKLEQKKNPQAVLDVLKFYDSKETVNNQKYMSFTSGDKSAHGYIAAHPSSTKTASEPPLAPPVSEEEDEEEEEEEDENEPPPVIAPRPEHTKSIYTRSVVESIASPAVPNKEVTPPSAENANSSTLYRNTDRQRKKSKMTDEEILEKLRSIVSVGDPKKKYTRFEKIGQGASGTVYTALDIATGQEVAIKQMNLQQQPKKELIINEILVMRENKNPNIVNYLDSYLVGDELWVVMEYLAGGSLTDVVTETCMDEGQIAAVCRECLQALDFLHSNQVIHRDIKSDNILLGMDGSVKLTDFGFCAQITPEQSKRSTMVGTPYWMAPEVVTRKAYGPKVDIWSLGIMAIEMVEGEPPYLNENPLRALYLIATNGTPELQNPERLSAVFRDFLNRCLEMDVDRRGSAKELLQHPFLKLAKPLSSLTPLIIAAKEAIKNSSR

`COc1cc(Nc2nc(C)cc(-c3cnn4nc(OC)ccc34)n2)cc(C(F)(F)F)c1` was tested. Which % of control [1] did it give?
Its % of control is 90%.

How did the % of inhibition [2] turn out when `Cn1cc(-n2cnc3c(NCc4nc5cc(Cl)c(Cl)cc5[nH]4)nc(N4CCOCC4)nc32)cn1` was run?
Its % of inhibition is -14.8%.

How did the % of inhibition [3] turn out when `Nc1cnc(N2CCc3cc(S(=O)(=O)Nc4c(F)cc(Cl)cc4F)cc(N4CCCC4=O)c32)nc1` [TP-020n] was run?
Its % of inhibition is 4.45%.

Which % of control [4] does the source give for `CCC(=O)N1CCN(c2ccc(-n3c(=O)ccc4cnc5ccc(-c6cnc7ccccc7c6)cc5c43)cc2C(F)(F)F)CC1` here?
The % of control was 69%.

Which % of control [5] does the source give for `CN(C)CCOc1ccc(-c2nc(-c3ccncc3)c(-c3ccc4c(c3)CC/C4=N\O)[nH]2)cc1` here?
The % of control was 100%.

For `N#Cc1cccc(-c2c[nH]c3ncnc(N4CCOCC4)c23)c1`, which % of control [6] is on record?
The % of control was 74%.

For `O[C@H]1CC[C@H](Nc2ncc3nc(Nc4c(F)cc(F)cc4F)n([C@H]4CCOC4)c3n2)CC1`, which % of control [7] is on record?
The % of control was 70%.
